Test results published in publication PMC11062899, “De novo development of small cyclic peptides that are orally bioavailable” (Nature Chemical Biology, 2023).
Where “and” joins values, the source holds several entries; their conditions need not be identical. Identical values can stand only once. Values belong to the compound of their own block, whether it stands above or below them.

Legend:
[1] = target: human α-thrombin (Homo sapiens, UniProt P00734); experiment: Protease inhibition, Ki for human α-thrombin (fluorogenic substrate Z-Gly-Gly-Arg-AMC); type: biochemical; settings: replicates R1-R3
Method in brief: (§1)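 Inhibition was measured as AMC fluorescence from 50 μM substrate, monitored for 30 min at 25 °C, relative to a peptide-free control. Human and rat enzymes were present at 2 nM and 3 nM final, respectively, in 50 mM Tris-HCl pH 7.4, 150 mM NaCl, 10 mM MgCl2, 1 mM CaCl2. Ki derives from fitted IC50 via Cheng–Prusoff.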

[2] = tested on: porcine pancreatin; experiment: Peptide stability in simulated intestinal fluid (SIF); type: in vitro ADME; settings: after 8 h vs 0 h (TIC); for SIF stability, Residual peptide Average: average of R1-R3
Method in brief: (§2)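 Peptide from a 1 mM DMSO stock was added to fluid pre-warmed at 37 °C. SGF was pH 1.2 NaCl with porcine pepsin (0.32 g per 100 ml), and SIF was pH 6.8 potassium phosphate with porcine pancreatin (1 g per 100 ml). Supernatant peptide was quantified by LC–MS, with residual expressed as T1/T0.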

[3] = as above; type: in vitro ADME, porcine; settings: simulated gi fluid; 8 h, 37 °C, pH 6.8; read-out: Proteolytic stability: SIF (8 h) % remaining
Method in brief: as §2

[4] = Metabolic stability in rat liver microsomes (RLMs); settings: rat, microsomes
[5] = Passive artificial membrane permeability (PAMPA); settings: for PAMPA permeability: % permeability: 50 μM, 12–18 h, acceptor concentration relative to equilibrium; for Papp at 50 μM / Permeability% Average / Permeability% R1 / Permeability% R3: PAMPA; for Papp at 50 μM: pH 7.4; for Permeability% Average: average of R1-R3; for Permeability% R1: replicate R1; for Permeability% R1 / Permeability% R3: TIC of top well sample relative to sample at theoretical equilibrium; for Permeability% R3: replicate R3
[6] = target: T1, rat α-thrombin (Rattus norvegicus, UniProt P18292); experiment: Protease inhibition, Ki for rat α-thrombin (fluorogenic substrate Z-Gly-Gly-Arg-AMC); type: biochemical; settings: replicates R1-R3
T1 construct: rat α-thrombin (Molecular Innovations) were used at final concentrations of 2 nM and 3 nM; purchased Molecular Innovations
Method in brief: as §1

[7] = target: T2, porcine pepsin (Sus scrofa, UniProt P00791); experiment: Peptide stability in simulated gastric fluid (SGF); type: in vitro ADME; settings: for SGF stability, Residual peptide Average / SGF stability, Residual peptide: after 8 h vs 0 h (TIC); for SGF stability, Residual peptide Average: average of R1-R3; for SGF stability, Residual peptide: single replicates R1-R3; for remaining at 8 h: simulated gi fluid, 37 °C, pH 1.2, read-out: Proteolytic stability: SGF (8 h) % remaining
T2 construct: 0.32 g of porcine pepsin (Sigma-Aldrich, P7125) was dissolved under gentle agitation; purchased Sigma-Aldrich P7125
Method in brief: as §2

[8] = peptide 1.33E+02 uM, slope of proteolytic substrate cleavage over time
[9] = CL (ul/min/mg protein) R1, RLM CL, replicate R1
[10] = CL (ul/min/mg protein) R2, RLM CL, replicate R2
[11] = CL (ul/min/mg protein) R3, RLM CL, replicate R3
[12] = Half Life (min) R1, RLM metabolic stability, replicate R1, 0-60 min
[13] = Half Life (min) R2, RLM metabolic stability, replicate R2, 0-60 min
[14] = Half Life (min) R3, RLM metabolic stability, replicate R3, 0-60 min
[15] = Metabolic stability: Half life T1/2 (min), RLMs, mean and SD, three measurements
[16] = Metabolic stability: RLM CL (ul/min/mg), RLMs, mean and SD, three measurements

T2 sequence (P00791 60-385): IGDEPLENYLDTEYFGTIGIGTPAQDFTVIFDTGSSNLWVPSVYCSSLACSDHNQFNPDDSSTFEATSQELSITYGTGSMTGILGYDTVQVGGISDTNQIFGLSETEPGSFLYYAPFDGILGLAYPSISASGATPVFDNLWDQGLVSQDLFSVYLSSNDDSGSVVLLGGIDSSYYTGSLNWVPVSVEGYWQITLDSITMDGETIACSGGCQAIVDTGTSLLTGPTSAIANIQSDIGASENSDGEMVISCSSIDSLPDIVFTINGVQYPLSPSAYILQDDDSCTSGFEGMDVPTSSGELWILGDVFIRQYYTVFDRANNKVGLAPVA

Human alpha thrombin inhibition, slope normalized to DMSO ([1]; peptide 1.02E-03 uM): 90.3 and 94.2 and 97.4
Human alpha thrombin inhibition, slope normalized to DMSO ([1]; peptide 1.04E+00 uM): 86.6 and 86.7 and 88.9
Human alpha thrombin inhibition, slope normalized to DMSO ([1]; peptide 1.27E-04 uM): 98.6 and 95.2 and 97.6
Human alpha thrombin inhibition, slope normalized to DMSO ([1]; peptide 1.30E-01 uM): 95.9 and 91.0 and 95.3
Human alpha thrombin inhibition, slope normalized to DMSO [1, 8]: 25.3 and 29.1 and 30.1
Human alpha thrombin inhibition, slope normalized to DMSO ([1]; peptide 1.63E-02 uM): 109.1 and 94.1 and 96.6
Human alpha thrombin inhibition, slope normalized to DMSO ([1]; peptide 1.67E+01 uM): 56.0 and 55.9 and 56.8
Human alpha thrombin inhibition, slope normalized to DMSO ([1]; peptide 2.03E-03 uM): 98.0 and 93.9 and 96.6
Human alpha thrombin inhibition, slope normalized to DMSO ([1]; peptide 2.08E+00 uM): 93.5 and 81.6 and 87.4
Human alpha thrombin inhibition, slope normalized to DMSO ([1]; peptide 2.54E-04 uM): 96.9 and 93.2 and 95.5
Human alpha thrombin inhibition, slope normalized to DMSO ([1]; peptide 2.60E-01 uM): 93.6 and 91.3 and 95.4
Human alpha thrombin inhibition, slope normalized to DMSO ([1]; peptide 3.18E-05 uM): 97.0 and 94.8 and 95.7
Human alpha thrombin inhibition, slope normalized to DMSO ([1]; peptide 3.26E-02 uM): 97.9 and 92.8 and 96.6
Human alpha thrombin inhibition, slope normalized to DMSO ([1]; peptide 3.33E+01 uM): 44.0 and 43.7 and 42.6
Human alpha thrombin inhibition, slope normalized to DMSO ([1]; peptide 4.07E-03 uM): 98.5 and 94.3 and 98.3
Human alpha thrombin inhibition, slope normalized to DMSO ([1]; peptide 4.17E+00 uM): 81.7 and 78.5 and 82.6
Human alpha thrombin inhibition, slope normalized to DMSO ([1]; peptide 5.09E-04 uM): 98.7 and 85.0 and 98.3
Human alpha thrombin inhibition, slope normalized to DMSO ([1]; peptide 5.21E-01 uM): 102.0 and 91.0 and 92.1
Human alpha thrombin inhibition, slope normalized to DMSO ([1]; peptide 6.36E-05 uM): 94.5 and 96.0 and 100.7
Human alpha thrombin inhibition, slope normalized to DMSO ([1]; peptide 6.51E-02 uM): 96.7 and 92.1 and 95.5
Human alpha thrombin inhibition, slope normalized to DMSO ([1]; peptide 6.67E+01 uM): 31.6 and 30.0 and 31.3
Human alpha thrombin inhibition, slope normalized to DMSO ([1]; peptide 8.14E-03 uM): 98.1 and 93.7 and 96.2
Human alpha thrombin inhibition, slope normalized to DMSO ([1]; peptide 8.33E+00 uM): 74.6 and 70.2 and 71.4
SIF stability, Residual peptide Average [2]: 91.77
SIF stability, Residual peptide ([2]; single replicates R1-R3): 101.93 and 87.06 and 86.31
remaining at 8 h [3]: 92 ± 9%
microsomal CLint [4, 9]: 149 µL/min/mg
microsomal CLint [4, 10]: 98.2 µL/min/mg
microsomal CLint [4, 11]: 109 µL/min/mg
half-life [4, 12]: 9.3 min
half-life [4, 13]: 14.1 min
half-life [4, 14]: 12.7 min
half-life [4, 15]: 12.1 ± 2 min
microsomal CLint [4, 16]: 119 ± 22 µL/min/mg
PAMPA permeability: % permeability [5]: 0.86 ± 0.09%
Papp at 50 μM [5]: 0.0575 ×10⁻⁶ cm/s
Permeability% Average [5]: 0.9%
Permeability% R1 [5]: 0.87%
Permeability% R3 [5]: 0.95%
Rat alpha thrombin inhibition, slope normalized to DMSO [6, 8]: 11.3 and 13.8 and 8.3
Rat alpha thrombin inhibition, slope normalized to DMSO ([6]; peptide 1.67E+01 uM): 29.0 and 30.7 and 41.4
Rat alpha thrombin inhibition, slope normalized to DMSO ([6]; peptide 2.08E+00 uM): 79.8 and 81.7 and 85.5
Rat alpha thrombin inhibition, slope normalized to DMSO ([6]; peptide 3.33E+01 uM): 17.9 and 19.2 and 22.6
Rat alpha thrombin inhibition, slope normalized to DMSO ([6]; peptide 4.17E+00 uM): 59.7 and 62.6 and 71.9
Rat alpha thrombin inhibition, slope normalized to DMSO ([6]; peptide 6.67E+01 uM): 10.8 and 11.8 and 26.2
Rat alpha thrombin inhibition, slope normalized to DMSO ([6]; peptide 8.33E+00 uM): 44.9 and 46.7 and 59.3
SGF stability, Residual peptide Average [7]: 97.83
SGF stability, Residual peptide [7]: 97.70 and 100.05 and 95.74
remaining at 8 h [7]: 98 ± 2%
SMILES: O=C1CCSCc2cccc(n2)CSCCNC(=O)[C@H](CO)NC(=O)[C@@H](NC(=O)c2ccc(Cl)s2)CN1 [compound 17]

Human alpha thrombin inhibition, slope normalized to DMSO ([1]; peptide 1.02E-03 uM): 98.5 and 92.4 and 98.3
Human alpha thrombin inhibition, slope normalized to DMSO ([1]; peptide 1.04E+00 uM): 56.0 and 56.7 and 59.7
Human alpha thrombin inhibition, slope normalized to DMSO ([1]; peptide 1.27E-04 uM): 96.6 and 96.4 and 97.8
Human alpha thrombin inhibition, slope normalized to DMSO ([1]; peptide 1.30E-01 uM): 89.4 and 79.1 and 90.0
Human alpha thrombin inhibition, slope normalized to DMSO [1, 8]: 3.8 and 5.6 and 7.2
Human alpha thrombin inhibition, slope normalized to DMSO ([1]; peptide 1.63E-02 uM): 96.8 and 95.2 and 98.6
Human alpha thrombin inhibition, slope normalized to DMSO ([1]; peptide 1.67E+01 uM): 11.2 and 13.1 and 6.6
Human alpha thrombin inhibition, slope normalized to DMSO ([1]; peptide 2.03E-03 uM): 96.1 and 91.3 and 98.5
Human alpha thrombin inhibition, slope normalized to DMSO ([1]; peptide 2.08E+00 uM): 44.5 and 43.9 and 46.9
Human alpha thrombin inhibition, slope normalized to DMSO ([1]; peptide 2.54E-04 uM): 98.7 and 101.9 and 92.3
Human alpha thrombin inhibition, slope normalized to DMSO ([1]; peptide 2.60E-01 uM): 82.9 and 76.8 and 85.2
Human alpha thrombin inhibition, slope normalized to DMSO ([1]; peptide 3.18E-05 uM): 98.4 and 99.1 and 103.6
Human alpha thrombin inhibition, slope normalized to DMSO ([1]; peptide 3.26E-02 uM): 83.8 and 90.0 (2×)
Human alpha thrombin inhibition, slope normalized to DMSO ([1]; peptide 3.33E+01 uM): 7.3 and 17.9 and 6.7
Human alpha thrombin inhibition, slope normalized to DMSO ([1]; peptide 4.07E-03 uM): 97.5 and 98.3 and 97.0
Human alpha thrombin inhibition, slope normalized to DMSO ([1]; peptide 4.17E+00 uM): 31.6 and 18.4 and 32.8
Human alpha thrombin inhibition, slope normalized to DMSO ([1]; peptide 5.09E-04 uM): 94.9 and 94.8 and 96.2
Human alpha thrombin inhibition, slope normalized to DMSO ([1]; peptide 5.21E-01 uM): 73.3 and 69.5 and 73.8
Human alpha thrombin inhibition, slope normalized to DMSO ([1]; peptide 6.36E-05 uM): 99.0 and 95.7 and 105.1
Human alpha thrombin inhibition, slope normalized to DMSO ([1]; peptide 6.51E-02 uM): 92.9 and 89.5 and 93.7
Human alpha thrombin inhibition, slope normalized to DMSO ([1]; peptide 6.67E+01 uM): 5.0 (2×) and 5.6
Human alpha thrombin inhibition, slope normalized to DMSO ([1]; peptide 8.14E-03 uM): 98.2 and 94.5 and 89.6
Human alpha thrombin inhibition, slope normalized to DMSO ([1]; peptide 8.33E+00 uM): 20.4 and 21.3 and 21.0
SIF stability, Residual peptide Average [2]: 95.61
remaining at 8 h [3]: 96 ± 11%
microsomal CLint [4, 9]: 187 µL/min/mg
microsomal CLint [4, 10]: 117 µL/min/mg
microsomal CLint [4, 11]: 148 µL/min/mg
half-life [4, 12]: 7.4 min
half-life [4, 13]: 11.9 min
half-life [4, 14]: 9.38 min
half-life [4, 15]: 9.5 ± 1.8 min
microsomal CLint [4, 16]: 151 ± 29 µL/min/mg
microsomal CLint ([4]; Metabolic stability: RLM CL Average, summary table, average of R1-R3): 151 µL/min/mg
microsomal CLint ([4]; Metabolic stability: RLM CL R1, summary table, rounded, replicate R1): 187 µL/min/mg
microsomal CLint ([4]; Metabolic stability: RLM CL R2, summary table, rounded, replicate R2): 117 µL/min/mg
microsomal CLint ([4]; Metabolic stability: RLM CL R3, summary table, rounded, replicate R3): 148 µL/min/mg
PAMPA permeability: % permeability [5]: 2.0 ± 1.7%
Papp at 50 μM [5]: 0.107 ×10⁻⁶ cm/s
Permeability% Average [5]: 2.0%
Permeability% R1 [5]: 3.95%
Permeability% R3 [5]: 1.45%
Rat alpha thrombin inhibition, slope normalized to DMSO [6, 8]: 2.5 and 3.0 and 16.1
Rat alpha thrombin inhibition, slope normalized to DMSO ([6]; peptide 1.67E+01 uM): 7.6 and 7.2 and 19.3
Rat alpha thrombin inhibition, slope normalized to DMSO ([6]; peptide 2.08E+00 uM): 36.1 and 33.7 and 41.7
Slope normalized to DMSO (proteolytic substrate cleavage over time) ([6]; peptide 2.54E-04 uM): 99.5 and 98.8
Slope normalized to DMSO (proteolytic substrate cleavage over time) ([6]; peptide 3.18E-05 uM): 98.9
Rat alpha thrombin inhibition, slope normalized to DMSO ([6]; peptide 3.33E+01 uM): 4.5 and 3.9 and 18.0
Rat alpha thrombin inhibition, slope normalized to DMSO ([6]; peptide 4.17E+00 uM): 21.1 and 20.6 and 33.2
Slope normalized to DMSO (proteolytic substrate cleavage over time) ([6]; peptide 6.36E-05 uM): 99.5
Slope normalized to DMSO (proteolytic substrate cleavage over time) ([6]; peptide 6.51E-02 uM): 99.3
Rat alpha thrombin inhibition, slope normalized to DMSO ([6]; peptide 6.67E+01 uM): 2.7 and 2.5 and 17.0
Slope normalized to DMSO (proteolytic substrate cleavage over time) ([6]; peptide 8.14E-03 uM): 99.8 and 99.9
Rat alpha thrombin inhibition, slope normalized to DMSO ([6]; peptide 8.33E+00 uM): 14.3 and 13.8 and 26.6
SGF stability, Residual peptide Average [7]: 103.72
SGF stability, Residual peptide [7]: 109.74 and 107.42 and 94.00
remaining at 8 h [7]: 104 ± 8%
SMILES: O=C1CC2CCN(CC2)C(=O)[C@H](Cc2ccccc2)NC(=O)[C@@H](NC(=O)c2ccc(Cl)s2)CSCCS(=O)(=O)CCSCCN1 [compound 13]
